The target of the assay is human IRAK4 (Homo sapiens (Human), UniProt Q9NWZ3). Briefly: IRAK4 kinase inhibition, Transcreener fluorescence polarization ADP assay. The class given is biochemical. The note with it: recombinant full-length His6-IRAK4; 125 uM ATP; 90 min; Ki computed using ATP Km 642 uM. Here is the method: Compounds were assayed for inhibition of human IRAK4 and IRAK1 catalytic activity using recombinant enzyme produced from insect cells. Full-length IRAK4 protein, carrying an N-terminal His6-Tag, was obtained from Life Technologies (Carlsbad, Calif., USA). The IRAK1 construct was produced internally and was comprised of IRAK1 residues Arg194 to Ser712, preceded by an NH2-terminal His6 tag and the coding sequence for glutathione-S-transferase.
Sequence of human IRAK4 (Q9NWZ3 whole entry, the tested form may be a part): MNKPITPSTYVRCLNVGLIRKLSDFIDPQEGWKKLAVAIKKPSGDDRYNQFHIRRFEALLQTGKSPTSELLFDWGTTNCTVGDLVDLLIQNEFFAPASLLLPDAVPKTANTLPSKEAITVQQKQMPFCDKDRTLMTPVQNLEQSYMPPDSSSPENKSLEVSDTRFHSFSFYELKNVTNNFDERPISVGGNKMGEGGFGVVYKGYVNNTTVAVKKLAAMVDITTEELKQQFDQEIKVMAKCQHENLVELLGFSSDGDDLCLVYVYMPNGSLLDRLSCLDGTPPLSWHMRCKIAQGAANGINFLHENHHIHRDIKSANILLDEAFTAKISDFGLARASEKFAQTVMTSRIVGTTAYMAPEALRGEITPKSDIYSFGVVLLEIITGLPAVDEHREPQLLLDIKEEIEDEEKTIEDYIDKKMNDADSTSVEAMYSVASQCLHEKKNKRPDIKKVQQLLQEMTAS
In general terms: In fluorescence polarisation assays a small probe gives low polarisation when free and higher when bound to something large.
A word on the Ki: it is the equilibrium dissociation constant of an inhibitor or competing ligand from its target. In the case of `C[C@@]1(CO)Cc2cc(NC(=O)c3cnn4cccnc34)c(N3C[C@H]4C[C@@H]3CO4)cc2O1` [Example 43, N—((S)-6-((1R,4R)-2-Oxa-5-azabicyclo[2.2.1]heptan-5-yl)-2-(hydroxymethyl)-2-methyl-2,3-dihydrobenzofuran-5-yl)pyrazolo[1,5-a]pyrimidine-3-carboxamide], the Ki turned out to be 130 nM.

`C[C@]1(CO)Cc2cc(NC(=O)c3cnn4cccnc34)c(N3C[C@@H]4C[C@H]3CO4)cc2O1` [Example 47, N—((R)-6-((1S,4S)-2-Oxa-5-azabicyclo[2.2.1]heptan-5-yl)-2-(hydroxymethyl)-2-methyl-2,3-dihydrobenzofuran-5-yl)pyrazolo[1,5-a]pyrimidine-3-carboxamide]: the inhibition constant Ki amounted to 180 nM.

In the case of `CNC(=O)[C@]1(C)Cc2cc(NC(=O)c3cnn4cccnc34)c(N3CCOCC3)cc2O1` [Example 48, (S)—N-(2-Methyl-2-(methylcarbamoyl)-6-morpholino-2,3-dihydrobenzofuran-5-yl)pyrazolo[1,5-a]pyrimidine-3-carboxamide], the inhibitory constant (Ki) turned out to be 190 nM.

As to `CNC(=O)[C@@]1(C)Cc2cc(NC(=O)c3cnn4cccnc34)c(N3CCOCC3)cc2O1` [Example 49, (R)—N-(2-Methyl-2-(methylcarbamoyl)-6-morpholino-2,3-dihydrobenzofuran-5-yl)pyrazolo[1,5-a]pyrimidine-3-carboxamide], the inhibition constant (Ki) is 22 nM.

Consider `C[C@]1(C(F)F)Cc2cc(NC(=O)c3cnn4cccnc34)c(N3CCOCC3)cc2O1` [Example 50, (R)—N-(2-(Difluoromethyl)-2-methyl-6-morpholino-2,3-dihydrobenzofuran-5-yl)pyrazolo[1,5-a]pyrimidine-3-carboxamide], for which the inhibition constant (Ki) came out at 6.2 nM.

Regarding `C[C@@]1(C(F)F)Cc2cc(NC(=O)c3cnn4cccnc34)c(N3CCOCC3)cc2O1` [Example 51, (S)—N-(2-(Difluoromethyl)-2-methyl-6-morpholino-2,3-dihydrobenzofuran-5-yl)pyrazolo[1,5-a]pyrimidine-3-carboxamide], the Ki was 9.6 nM.

Turning to `Cc1cnc2c(C(=O)Nc3cc4c(cc3N3CCC(C(C)(C)O)CC3)O[C@@](C)(CO)C4)cnn2c1` [Example 52, (R)—N-(2-(Hydroxymethyl)-6-(4-(2-hydroxypropan-2-yl)piperidin-1-yl)-2-methyl-2,3-dihydrobenzofuran-5-yl)-6-methylpyrazolo[1,5-a]pyrimidine-3-carboxamide], the Ki is 3.8 nM.

Regarding `Cc1cnc2c(C(=O)Nc3cc4c(cc3N3CCC(C(C)(C)O)CC3)O[C@](C)(CO)C4)cnn2c1` [Example 53, (S)—N-(2-(Hydroxymethyl)-6-(4-(2-hydroxypropan-2-yl)piperidin-1-yl)-2-methyl-2,3-dihydrobenzofuran-5-yl)-6-methylpyrazolo[1,5-a]pyrimidine-3-carboxamide], the Ki amounted to 2.7 nM.

Regarding `C[C@]1(CO)Cc2cc(NC(=O)c3cnn4cc(F)cnc34)c(N3CCOCC3)cc2O1` [Example 54, (R)-6-Fluoro-N-(2-(hydroxymethyl)-2-methyl-6-morpholino-2,3-dihydrobenzofuran-5-yl)pyrazolo[1,5-a]pyrimidine-3-carboxamide], the inhibitory constant (Ki) worked out at 16 nM.

On to `C[C@@]1(CO)Cc2cc(NC(=O)c3cnn4cc(F)cnc34)c(N3CCOCC3)cc2O1` [Example 55, (S)-6-Fluoro-N-(2-(hydroxymethyl)-2-methyl-6-morpholino-2,3-dihydrobenzofuran-5-yl)pyrazolo[1,5-a]pyrimidine-3-carboxamide], for which the inhibitory constant (Ki) was determined as 34 nM.

Consider `C[C@@]1(CO)Cc2cc(NC(=O)c3cnn4cccnc34)c(N3CC[C@H](F)C3)cc2O1` [Example 56, N-[(2S)-6-[(3S)-3-Fluoropyrrolidin-1-yl]-2-(hydroxymethyl)-2-methyl-3H-benzofuran-5-yl]pyrazolo[1,5-a]pyrimidine-3-carboxamide], for which the Ki was 21 nM.

On to `C[C@]1(CO)Cc2cc(NC(=O)c3cnn4cccnc34)c(N3CC[C@H](F)C3)cc2O1` [Example 57, N-[(2R)-6-[(3S)-3-Fluoropyrrolidin-1-yl]-2-(hydroxymethyl)-2-methyl-3H-benzofuran-5-yl]pyrazolo[1,5-a]pyrimidine-3-carboxamide], for which the inhibition constant Ki came out at 60 nM.

In the case of `C[C@]1(CO)Cc2cc(NC(=O)c3cnn4cccnc34)c(N3CC[C@@H](F)C3)cc2O1` [Example 58, N-[(2R)-6-[(3R)-3-Fluoropyrrolidin-1-yl]-2-(hydroxymethyl)-2-methyl-3H-benzofuran-5-yl]pyrazolo[1,5-a]pyrimidine-3-carboxamide], the inhibition constant Ki came to 36 nM.

`C[C@@]1(CO)Cc2cc(NC(=O)c3cnn4cccnc34)c(N3CC[C@@H](F)C3)cc2O1` [Example 59, N-[(2S)-6-[(3R)-3-Fluoropyrrolidin-1-yl]-2-(hydroxymethyl)-2-methyl-3H-benzofuran-5-yl]pyrazolo[1,5-a]pyrimidine-3-carboxamide]: the inhibition constant (Ki) amounted to 9.6 nM.

For `CC1(C)Cc2cc(NC(=O)c3cnn4cccnc34)c(N3CCN(CCO)CC3)cc2O1` [Example 60, N-[6-[4-(2-Hydroxyethyl)piperazin-1-yl]-2,2-dimethyl-3H-benzofuran-5-yl]pyrazolo[1,5-a]pyrimidine-3-carboxamide], the Ki stood at 6.6 nM.

Consider `CC1(C)Cc2cc(NC(=O)c3cnn4cc(C5CC5)cnc34)c(N3CCOCC3)cc2O1` [Example 61, 6-Cyclopropyl-N-(2,2-dimethyl-6-morpholino-3H-benzofuran-5-yl)pyrazolo[1,5-a]pyrimidine-3-carboxamide], for which the inhibition constant (Ki) came to 35 nM.

With `CC1(C)Cc2cc(NC(=O)c3cnn4cccnc34)c(C3CCNCC3)cc2O1` [Example 62, N-[2,2-Dimethyl-6-(4-piperidyl)-3H-benzofuran-5-yl]pyrazolo[1,5-a]pyrimidine-3-carboxamide], the inhibitory constant (Ki) is 260 nM.

Take `CN1CCC(c2cc3c(cc2NC(=O)c2cnn4cccnc24)CC(C)(C)O3)CC1` [Example 63, N-[2,2-Dimethyl-6-(1-methyl-4-piperidyl)-3H-benzofuran-5-yl]pyrazolo[1,5-a]pyrimidine-3-carboxamide]: the inhibition constant Ki amounted to 390 nM.

In the case of `CC1(C)Cc2cc(NC(=O)c3cnn4cccnc34)c(O[C@H]3CC[C@@H](O)CC3)cc2O1` [Example 64, Cis-N-[6-(4-hydroxycyclohexoxy)-2,2-dimethyl-3H-benzofuran-5-yl]pyrazolo[1,5-a]pyrimidine-3-carboxamide], the Ki is 8.7 nM.

As for `CC1(C)Cc2cc(NC(=O)c3cnn4cccnc34)c(O[C@H]3CC[C@H](O)CC3)cc2O1` [Example 65, Trans-N-[6-(4-hydroxycyclohexoxy)-2,2-dimethyl-3H-benzofuran-5-yl]pyrazolo[1,5-a]pyrimidine-3-carboxamide], the Ki stood at 9.2 nM.

Consider `C[C@]1(CO)Cc2cc(NC(=O)c3cnn4cccnc34)c(N3CCC(F)(F)C3)cc2O1` [Example 66, N-[(2R)-6-(3,3-Difluoropyrrolidin-1-yl)-2-(hydroxymethyl)-2-methyl-3H-benzofuran-5-yl]pyrazolo[1,5-a]pyrimidine-3-carboxamide], for which the Ki is 24 nM.

`C[C@@]1(CO)Cc2cc(NC(=O)c3cnn4cccnc34)c(N3CCC(F)(F)C3)cc2O1` [Example 67, N-[(2S)-6-(3,3-Difluoropyrrolidin-1-yl)-2-(hydroxymethyl)-2-methyl-3H-benzofuran-5-yl]pyrazolo[1,5-a]pyrimidine-3-carboxamide]: the inhibition constant (Ki) is 4.4 nM.

On to `CC1(C)Cc2cc(NC(=O)c3cnn4cccnc34)c(N3CC(O)C(F)(F)C3)cc2O1` (stereo not drawn) [Example 68, N-(6-(3,3-Difluoro-4-hydroxypyrrolidin-1-yl)-2,2-dimethyl-2,3-dihydrobenzofuran-5-yl)pyrazolo[1,5-a]pyrimidine-3-carboxamide], for which the Ki turned out to be 9.8 nM.

For the molecule `CC1(C)Cc2cc(NC(=O)c3cnn4cc(C(F)(F)F)cnc34)c(N3CCOCC3)cc2O1` [Example 69, N-(2,2-Dimethyl-6-morpholino-2,3-dihydrobenzofuran-5-yl)-6-(trifluoromethyl)pyrazolo[1,5-a]pyrimidine-3-carboxamide], the Ki was found to be 27 nM.

Regarding `CC1(C)Cc2cc(NC(=O)c3cnn4cccnc34)c(OCC(F)(F)F)cc2O1` [Example 70, N-[2,2-Dimethyl-6-(2,2,2-trifluoroethoxy)-3H-benzofuran-5-yl]pyrazolo[1,5-a]pyrimidine-3-carboxamide], the inhibition constant Ki was determined as 28 nM.

As for `C[C@]1(CO)Cc2cc(NC(=O)c3cnn4cccnc34)c(C(F)(F)F)cc2O1` [Example 71, N-[(2R)-2-(Hydroxymethyl)-2-methyl-6-(trifluoromethyl)-3H-benzofuran-5-yl]pyrazolo[1,5-a]pyrimidine-3-carboxamide], the inhibition constant (Ki) came to 920 nM.

Regarding `C[C@@]1(CO)Cc2cc(NC(=O)c3cnn4cccnc34)c(C(F)(F)F)cc2O1` [Example 72, N-[(2S)-2-(hydroxymethyl)-2-methyl-6-(trifluoromethyl)-3H-benzofuran-5-yl]pyrazolo[1,5-a]pyrimidine-3-carboxamide], the Ki was 450 nM.

For `C[C@@]1(CO)Cc2cc(NC(=O)c3cnn4cccnc34)c(C(F)F)cc2O1` [Example 73, N-[(2S)-6-(Difluoromethyl)-2-(hydroxymethyl)-2-methyl-3H-benzofuran-5-yl]pyrazolo[1,5-a]pyrimidine-3-carboxamide], the inhibition constant (Ki) worked out at 360 nM.

Take `C[C@]1(CO)Cc2cc(NC(=O)c3cnn4cccnc34)c(C(F)F)cc2O1` [Example 74, N-[(2R)-6-(difluoromethyl)-2-(hydroxymethyl)-2-methyl-3H-benzofuran-5-yl]pyrazolo[1,5-a]pyrimidine-3-carboxamide]: the Ki came out at 750 nM.

For the molecule `CC1(CO)Cc2cc(NC(=O)c3cnn4cc(C(F)F)cnc34)c(N3CCOCC3)cc2O1` (stereo not drawn) [Example 75, 6-(Difluoromethyl)-N-[2-(hydroxymethyl)-2-methyl-6-morpholino-3H-benzofuran-5-yl]pyrazolo[1,5-a]pyrimidine-3-carboxamide], the inhibition constant Ki is 65 nM.
